# What was measured:
# factor Xa = test: antifactor Xa activity of tafoxiparin; format: biochemical; details: definition of tafoxiparin
# [1] = anticoagulant activity (descriptive)
# factor IIa = test: antifactor IIa activity of tafoxiparin; format: biochemical; details: definition of tafoxiparin
# factor IIa, sequence (P01008 33-464): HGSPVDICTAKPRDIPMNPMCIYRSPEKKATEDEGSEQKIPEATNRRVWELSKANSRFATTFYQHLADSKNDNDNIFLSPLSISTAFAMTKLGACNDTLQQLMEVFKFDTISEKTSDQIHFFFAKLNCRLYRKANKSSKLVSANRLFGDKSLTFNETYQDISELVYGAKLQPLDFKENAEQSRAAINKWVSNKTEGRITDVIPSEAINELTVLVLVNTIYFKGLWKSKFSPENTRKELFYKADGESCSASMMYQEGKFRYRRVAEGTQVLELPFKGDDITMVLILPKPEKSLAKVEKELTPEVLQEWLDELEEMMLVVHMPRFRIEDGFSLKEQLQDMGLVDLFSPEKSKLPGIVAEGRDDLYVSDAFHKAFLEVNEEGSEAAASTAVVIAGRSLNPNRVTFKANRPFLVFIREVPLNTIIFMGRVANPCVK
# factor Xa, sequence (P01008 33-464 partner): as the sequence (P01008 33-464) above
# factor Xa, sequence (P00742 235-488 limits assumed, further chain): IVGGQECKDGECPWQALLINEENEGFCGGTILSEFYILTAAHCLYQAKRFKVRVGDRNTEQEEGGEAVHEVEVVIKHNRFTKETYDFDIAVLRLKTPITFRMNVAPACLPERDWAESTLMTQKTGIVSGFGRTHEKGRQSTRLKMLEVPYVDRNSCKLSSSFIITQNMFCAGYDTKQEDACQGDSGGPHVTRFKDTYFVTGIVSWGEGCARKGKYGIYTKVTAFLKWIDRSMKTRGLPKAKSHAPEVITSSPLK
substance,measurement,setting,value
tafoxiparin,antifactor Xa activity,factor Xa,less than 10 IU/mg
same,anticoagulant activity,[1],essentially no anticoagulant activity
same,antifactor Ila activity,factor IIa,less than 10 IU/mg
